These are literature values, as cited in patent US9895393B2, “Topical formulations for increasing the dermal concentration of hyaluronic acid” (SHAMROC, INC., priority 2012, dated 2018).

Peptide text beside a SMILES is read from it. * marks the point of attachment. Palmitoyl = CCCCCCCCCCCCCCCC(=O)*

For data set [1], the system named is human fibroblasts.
Data set [2] has as its system skin. Particulars: Studies have shown.
Data set [3] relates to lipid peroxidation.

Turning to `CCCCCCCCCCCCCCCC(=O)N[C@@H](CCCCN)C(=O)N[C@H](C(=O)N[C@@H](CCCCN)C(=O)O)C(C)C.O=C(O)C(F)(F)F.O=C(O)C(F)(F)F` [palmitoyl-lysyl-valyl-lysine bistrifluoroacetate] (Palmitoyl-Lys-Val-Lys-OH), the collagen synthesis result in data set [1] is “stimulates collagen synthesis”.

As for `CCCCCCCCC(CCCCCC)C(=O)OC[C@H](OC(=O)C(CCCCCC)CCCCCCCC)[C@H]1OC(=O)C(OC(=O)C(CCCCCC)CCCCCCCC)=C1OC(=O)C(CCCCCC)CCCCCCCC` (stereo partly shown) [tetrahexyldecyl ascorbate], in data set [2], the collagen production entry was “stimulate collagen production” and the “melanogenesis (the production of pigment)” value was “inhibiting melanogenesis”. The anti-oxidant activity entry in data set [3] was “inhibiting lipid peroxidation”.
